# PMC10178848, “Modulating fast skeletal muscle contraction protects skeletal muscle in animal models of Duchenne muscular dystrophy” (The Journal of Clinical Investigation, 2023)
# Where two headings read alike, the source gives them in different places.
# Tested on: GRMD plasma proteins
# Type: in vivo, dog
# [1] = EDG-5506 treatment to GRMD baseline, Decreased in GRMD
structure (smiles),measurement,setting,value
O=c1ccc(-c2cnc(OCC(F)(F)F)nc2)nn1Cc1cncc(F)c1 [EDG-5506],Change from GRMD Baseline (fraction),"3-hydroxy-3-methylglutaryl-coenzyme A reductase (HMGCR), EDG-5506 treatment to GRMD baseline",0.149 fraction
same,Change from GRMD Baseline (fraction),"3-hydroxy-3-methylglutaryl-coenzyme A reductase (HMGCR), Post-Treatment to GRMD baseline",-0.0053 fraction
same,Change from GRMD Baseline (fraction),"Annexin A5 (ANXA5), EDG-5506 treatment to GRMD baseline",0.0604 fraction
same,Change from GRMD Baseline (fraction),"Annexin A5 (ANXA5), Post-Treatment to GRMD baseline",-0.0309 fraction
same,Change from GRMD Baseline (fraction),"Apolipoprotein M (APOM), EDG-5506 treatment to GRMD baseline",0.1027 fraction
same,Change from GRMD Baseline (fraction),"Apolipoprotein M (APOM), Post-Treatment to GRMD baseline",-0.1149 fraction
same,Change from GRMD Baseline (fraction),"Bactericidal permeability-increasing protein (BPI), EDG-5506 treatment to GRMD baseline",0.0745 fraction
same,Change from GRMD Baseline (fraction),"Bactericidal permeability-increasing protein (BPI), Post-Treatment to GRMD baseline",0.1503 fraction
same,Change from GRMD Baseline (fraction),"Basigin (BSG), EDG-5506 treatment to GRMD baseline",0.1541 fraction
same,Change from GRMD Baseline (fraction),"Basigin (BSG), Post-Treatment to GRMD baseline",-0.07 fraction
same,Change from GRMD Baseline (fraction),"Brain-derived neurotrophic factor (BDNF), EDG-5506 treatment to GRMD baseline",0.0859 fraction
same,Change from GRMD Baseline (fraction),"Brain-derived neurotrophic factor (BDNF), Post-Treatment to GRMD baseline",-0.07 fraction
same,Change from GRMD Baseline (fraction),"Calcium/calmodulin-dependent 3',5'-cyclic nucleotide phosphodiesterase 1A (PDE1A), EDG-5506 treatment to GRMD baseline",0.0363 fraction
same,Change from GRMD Baseline (fraction),"Calcium/calmodulin-dependent 3',5'-cyclic nucleotide phosphodiesterase 1A (PDE1A), Post-Treatment to GRMD baseline",-0.0044 fraction
same,Change from GRMD Baseline (fraction),"Carbohydrate sulfotransferase 15 (CHST15), EDG-5506 treatment to GRMD baseline",0.0872 fraction
same,Change from GRMD Baseline (fraction),"Carbohydrate sulfotransferase 15 (CHST15), Post-Treatment to GRMD baseline",-0.1346 fraction
same,Change from GRMD Baseline (fraction),"Carbonic anhydrase 7 (CA7), EDG-5506 treatment to GRMD baseline",0.1779 fraction
same,Change from GRMD Baseline (fraction),"Carbonic anhydrase 7 (CA7), Post-Treatment to GRMD baseline",0.1249 fraction
same,Change from GRMD Baseline (fraction),"Cathepsin G (CTSG), EDG-5506 treatment to GRMD baseline",0.0969 fraction
same,Change from GRMD Baseline (fraction),"Cathepsin G (CTSG), Post-Treatment to GRMD baseline",0.1704 fraction
same,Change from GRMD Baseline (fraction),"Cathepsin H (CTSH), EDG-5506 treatment to GRMD baseline",0.1349 fraction
same,Change from GRMD Baseline (fraction),"Cathepsin H (CTSH), Post-Treatment to GRMD baseline",-0.0348 fraction
same,Change from GRMD Baseline (fraction),"Ciliary neurotrophic factor (CNTF), EDG-5506 treatment to GRMD baseline",0.2366 fraction
same,Change from GRMD Baseline (fraction),"Ciliary neurotrophic factor (CNTF), Post-Treatment to GRMD baseline",0.313 fraction
same,Change from GRMD Baseline (fraction),"Collectin-11 (COLEC11), EDG-5506 treatment to GRMD baseline",-0.1017 fraction
same,Change from GRMD Baseline (fraction),"Collectin-11 (COLEC11), Post-Treatment to GRMD baseline",-0.0756 fraction
same,Change from GRMD Baseline (fraction),"Complement component C7 (C7), EDG-5506 treatment to GRMD baseline",0.118 fraction
same,Change from GRMD Baseline (fraction),"Complement component C7 (C7), Post-Treatment to GRMD baseline",0.1005 fraction
same,Change from GRMD Baseline (fraction),"Contactin-2 (CNTN2), EDG-5506 treatment to GRMD baseline",0.1036 fraction
same,Change from GRMD Baseline (fraction),"Contactin-2 (CNTN2), Post-Treatment to GRMD baseline",-0.068 fraction
same,Change from GRMD Baseline (fraction),"Cytotoxic T-lymphocyte protein 4 (CTLA4), EDG-5506 treatment to GRMD baseline",0.1272 fraction
same,Change from GRMD Baseline (fraction),"Cytotoxic T-lymphocyte protein 4 (CTLA4), Post-Treatment to GRMD baseline",0.041 fraction
same,Change from GRMD Baseline (fraction),"Delta-like protein 4 (DLL4), EDG-5506 treatment to GRMD baseline",0.0825 fraction
same,Change from GRMD Baseline (fraction),"Delta-like protein 4 (DLL4), Post-Treatment to GRMD baseline",-0.0212 fraction
same,Change from GRMD Baseline (fraction),"Dickkopf-related protein 3 (DKK3), EDG-5506 treatment to GRMD baseline",0.0897 fraction
same,Change from GRMD Baseline (fraction),"Dickkopf-related protein 3 (DKK3), Post-Treatment to GRMD baseline",-0.0042 fraction
same,"3-hydroxyisobutyrate dehydrogenase, mitochondrial (HIBADH): Change from GRMD Baseline (fraction)",[1],0.1537 fraction
same,14-3-3 protein beta/alpha (YWHAB): Change from GRMD Baseline (fraction),[1],-0.0886 fraction
same,14-3-3 protein sigma (SFN): Change from GRMD Baseline (fraction),[1],0.3172 fraction
same,72 kDa type IV collagenase (MMP2): Change from GRMD Baseline (fraction),[1],0.1734 fraction
same,Adrenomedullin (ADM): Change from GRMD Baseline (fraction),[1],-0.0855 fraction
same,Aggrecan core protein (ACAN): Change from GRMD Baseline (fraction),[1],0.167 fraction
same,Alpha-synuclein (SNCA): Change from GRMD Baseline (fraction),[1],0.0584 fraction
same,Apolipoprotein B (APOB): Change from GRMD Baseline (fraction),[1],0.074 fraction
same,Appetite-regulating hormone (GHRL): Change from GRMD Baseline (fraction),[1],0.1979 fraction
same,Atrial natriuretic factor (NPPA): Change from GRMD Baseline (fraction),[1],0.1398 fraction
same,BDNF/NT-3 growth factors receptor (NTRK2): Change from GRMD Baseline (fraction),[1],0.1937 fraction
same,BH3-interacting domain death agonist (BID): Change from GRMD Baseline (fraction),[1],0.1126 fraction
same,Bcl-2-related protein A1 (BCL2A1): Change from GRMD Baseline (fraction),[1],-0.0911 fraction
same,Bone morphogenetic protein 6 (BMP6): Change from GRMD Baseline (fraction),[1],0.2555 fraction
same,Bone morphogenetic protein 10 (BMP10): Change from GRMD Baseline (fraction),[1],0.1398 fraction
same,C-X-C motif chemokine 10 (CXCL10): Change from GRMD Baseline (fraction),[1],0.1922 fraction
same,C-type mannose receptor 2 (MRC2): Change from GRMD Baseline (fraction),[1],0.1728 fraction
same,CD166 antigen (ALCAM): Change from GRMD Baseline (fraction),[1],0.2333 fraction
same,Cadherin-5 (CDH5): Change from GRMD Baseline (fraction),[1],0.1109 fraction
same,Carboxypeptidase E (CPE): Change from GRMD Baseline (fraction),[1],0.0406 fraction
same,Cell adhesion molecule 1 (CADM1): Change from GRMD Baseline (fraction),[1],0.0424 fraction
same,Chromogranin-A (CHGA): Change from GRMD Baseline (fraction),[1],0.2322 fraction
same,Ciliary neurotrophic factor receptor subunit alpha (CNTFR): Change from GRMD Baseline (fraction),[1],0.1045 fraction
same,Ck-beta-8-1 (CCL23): Change from GRMD Baseline (fraction),[1],0.0708 fraction
same,Coiled-coil domain-containing protein 80 (CCDC80): Change from GRMD Baseline (fraction),[1],-0.0672 fraction
same,Collagen alpha-1(VIII) chain (COL8A1): Change from GRMD Baseline (fraction),[1],0.2128 fraction
same,Collagenase 3 (MMP13): Change from GRMD Baseline (fraction),[1],-0.0939 fraction
same,Collectin-12 (COLEC12): Change from GRMD Baseline (fraction),[1],0.2006 fraction
same,Complement component C1q receptor (CD93): Change from GRMD Baseline (fraction),[1],0.1785 fraction
same,Complement decay-accelerating factor (CD55): Change from GRMD Baseline (fraction),[1],-0.0957 fraction
same,Contactin-1 (CNTN1): Change from GRMD Baseline (fraction),[1],0.0923 fraction
same,Corticotropin (POMC): Change from GRMD Baseline (fraction),[1],-0.096 fraction
same,Cytotoxic and regulatory T-cell molecule (CRTAM): Change from GRMD Baseline (fraction),[1],-0.015 fraction
same,Dickkopf-related protein 1 (DKK1): Change from GRMD Baseline (fraction),[1],0.2889 fraction
same,Dickkopf-related protein 4 (DKK4): Change from GRMD Baseline (fraction),[1],0.1406 fraction
same,E3 ubiquitin-protein ligase ZNRF3 (ZNRF3): Change from GRMD Baseline (fraction),[1],-0.0555 fraction
same,Ephrin type-A receptor 5 (EPHA5): Change from GRMD Baseline (fraction),[1],0.0759 fraction
same,Ephrin-A2 (EFNA2): Change from GRMD Baseline (fraction),[1],0.0899 fraction
same,Ephrin-A5 (EFNA5): Change from GRMD Baseline (fraction),[1],0.0839 fraction
same,Epidermal growth factor receptor (EGFR): Change from GRMD Baseline (fraction),[1],0.2223 fraction
same,Estradiol 17-beta-dehydrogenase 1 (HSD17B1): Change from GRMD Baseline (fraction),[1],0.1223 fraction
same,"Fatty acid-binding protein, epidermal (FABP5): Change from GRMD Baseline (fraction)",[1],0.0517 fraction
same,Fc receptor-like protein 3 (FCRL3): Change from GRMD Baseline (fraction),[1],-0.0177 fraction
same,GDNF family receptor alpha-2 (GFRA2): Change from GRMD Baseline (fraction),[1],0.1299 fraction
same,Galectin-8 (LGALS8): Change from GRMD Baseline (fraction),[1],0.0779 fraction
same,Galectin-9 (LGALS9): Change from GRMD Baseline (fraction),[1],-0.04 fraction
same,Gamma-enolase (ENO2): Change from GRMD Baseline (fraction),[1],0.1938 fraction
same,Gastrin-releasing peptide (GRP): Change from GRMD Baseline (fraction),[1],0.0715 fraction
same,Glutamate carboxypeptidase 2 (FOLH1): Change from GRMD Baseline (fraction),[1],0.301 fraction
same,Glypican-2 (GPC2): Change from GRMD Baseline (fraction),[1],0.2818 fraction
same,Gremlin-1 (GREM1): Change from GRMD Baseline (fraction),[1],0.117 fraction
same,Growth/differentiation factor 8 (MSTN): Change from GRMD Baseline (fraction),[1],0.0197 fraction
same,Growth/differentiation factor 11/8 (GDF11 MSTN): Change from GRMD Baseline (fraction),[1],0.039 fraction
same,Hemoglobin (HBA1 HBB): Change from GRMD Baseline (fraction),[1],-0.194 fraction
same,Heparin cofactor 2 (SERPIND1): Change from GRMD Baseline (fraction),[1],0.095 fraction
same,Hepatitis A virus cellular receptor 2 (HAVCR2): Change from GRMD Baseline (fraction),[1],-0.0356 fraction
same,High affinity immunoglobulin gamma Fc receptor I (FCGR1A): Change from GRMD Baseline (fraction),[1],0.1553 fraction
same,Histone-lysine N-methyltransferase EHMT2 (EHMT2): Change from GRMD Baseline (fraction),[1],0.3323 fraction
same,Hyaluronan and proteoglycan link protein 1 (HAPLN1): Change from GRMD Baseline (fraction),[1],0.0551 fraction
same,Insulin-like growth factor 1 receptor (IGF1R): Change from GRMD Baseline (fraction),[1],0.1691 fraction
same,Integrin alpha-V: beta-5 complex (ITGAV ITGB5): Change from GRMD Baseline (fraction),[1],-0.051 fraction
same,Interleukin-4 receptor subunit alpha (IL4R): Change from GRMD Baseline (fraction),[1],0.1823 fraction
same,Interleukin-18-binding protein (IL18BP): Change from GRMD Baseline (fraction),[1],0.0143 fraction
same,Interstitial collagenase (MMP1): Change from GRMD Baseline (fraction),[1],0.0861 fraction
same,Leucine-rich repeat transmembrane neuronal protein 3 (LRRTM3): Change from GRMD Baseline (fraction),[1],0.2512 fraction
same,Limbic system-associated membrane protein (LSAMP): Change from GRMD Baseline (fraction),[1],0.1355 fraction
same,Lymphocyte activation gene 3 protein (LAG3): Change from GRMD Baseline (fraction),[1],0.164 fraction
same,Lysosome membrane protein 2 (SCARB2): Change from GRMD Baseline (fraction),[1],0.1336 fraction
same,MHC class I polypeptide-related sequence B (MICB): Change from GRMD Baseline (fraction),[1],0.2058 fraction
same,Matrilin-2 (MATN2): Change from GRMD Baseline (fraction),[1],-0.0022 fraction
same,Melanoma-derived growth regulatory protein (MIA): Change from GRMD Baseline (fraction),[1],0.1875 fraction
same,Moesin (MSN): Change from GRMD Baseline (fraction),[1],-0.082 fraction
same,Muellerian-inhibiting factor (AMH): Change from GRMD Baseline (fraction),[1],0.0498 fraction
same,NKG2D ligand 1 (ULBP1): Change from GRMD Baseline (fraction),[1],-0.0534 fraction
same,NT-3 growth factor receptor (NTRK3): Change from GRMD Baseline (fraction),[1],0.1168 fraction
same,Netrin receptor UNC5C (UNC5C): Change from GRMD Baseline (fraction),[1],0.03 fraction
same,Neurogenic locus notch homolog protein 2 (NOTCH2): Change from GRMD Baseline (fraction),[1],0.2188 fraction
same,Neurogenic locus notch homolog protein 3 (NOTCH3): Change from GRMD Baseline (fraction),[1],0.0936 fraction
same,Nuclear receptor subfamily 1 group D member 1 (NR1D1): Change from GRMD Baseline (fraction),[1],0.048 fraction
same,Phospholipase A2 (PLA2G1B): Change from GRMD Baseline (fraction),[1],0.0754 fraction
same,Placenta growth factor (PGF): Change from GRMD Baseline (fraction),[1],-0.066 fraction
same,Plasminogen (PLG): Change from GRMD Baseline (fraction),[1],0.2052 fraction
same,PolyUbiquitin K63-linked (UBC): Change from GRMD Baseline (fraction),[1],0.2167 fraction
